Test results taken from article PMC10020958, “2-(4-Fluorophenyl)-1H-benzo[d]imidazole as a Promising Template for the Development of Metabolically Robust, α1β2γ2GABA-A Receptor-Positive Allosteric Modulators” (ACS Chemical Neuroscience, 2023).
Converted amounts (≈) assume the structure as drawn.

Columns and labels:
[1] = molecular target: T1, α1β2γ2-GABA-A receptors stably expressed in HEK293 cells (Homo sapiens, UniProt P14867+P18507); assay: Electrophysiological studies, automated patch clamp (QPatch16X), positive allosteric modulation of GABA-induced Cl- currents; format: cell-based; conditions: compound 1 μM co-applied with 10 μM GABA; GABA alone = 100%; mean ± SEM
T1 construct: expressed in transfected cells
Method: Given that ligands binding within the α1/γ2 interface act as PAMs, we selected the most promising 1H-benzo[d]imidazoles (9, 15, 16, 23, and 29) for electrophysiological studies using automated patch clamp recordings (QPatch16X, Sophion). We expected that 1H-benzo[d]imidazoles would potentiate GABA-induced Cl^– currents rather than inducing ion passage alone.
Electrophysiology studies were performed using the QPatch16X automatic patch clamp platform (Sophion Biosciences) and HEK293 cells, stably expressing the α1β2γ2 subunits of the human GABA-A receptor. Prior to the assay recordings, the cells were transferred from the culture flask through a TrypLE Express solution (LifeTechnologies) and resuspended in serum-free media. The cells were placed in the lidless microtube, located onboard the automated electrophysiology instrument. The cells were then automatically relocated to a built-in centrifuge, spun down, and washed in Ringer’s extracellular solution. The cells were transferred to the pipetting wells of a single-use 16-channel planar patch chip plate (QPlate 16X), and gigaseals were formed upon implementation of a combined suction/voltage protocol. Subsequent suction induced whole-cell configuration. The chloride currents passed via the GABA-A receptor were recorded for 7 s after single addition of a tested molecule. Through whole-cell recording, the holding potential was set to −90 mV. The assay was performed at room temperature. The extracellular solution was composed of the following ingredients: consisted of 2 mM […], 145 mM NaCl, 10 mM HEPES, CaCl2, 1 mM MgCl2, 10 mM glucose (pH 7.4, 300 mOsm), and intracellular solution contained 140 mM CsF, 1 mM EGTA, 5 mM CsOH, 10 mM HEPES, and 20 mMNaCl (pH 7.2, 320 mOsm). The screening assays were established in the instrument software by sequential application of 10 μM GABA (reference agonist AG1), 1 μM examined molecule compounds, and compounds co-administered with 10 μM GABA (T2); second addition of 10 μM GABA (AG2); 10 μM bicuculline (reference antagonist) along with 10 μM GABA (ATG). The intermission among the addition of particular molecules was 60 s. In a typical procedure, 5 μL of ligand was added to the cells, followed by 3 s of washout with an extracellular solution (two times […]). For the allosteric modulator/antagonist mode, the cells were preincubated with the tested compound alone for 50 s, followed by the addition of the reference agonist. The data obtained were processed using QPatch Assay Software (v5.0, Sophion Biosciences) and are represented as the mean of at least three independent experiments performed on separate cells. The validation criteria for a single test were current amplitude evoked by adding GABA greater than 500 pA and a change between cells’ response to GABA applications (AG1 and AG2) not greater than 25%. The relative compound efficiency was analyzed as the baseline-corrected ratio of maximal current amplitudes induced by the addition of tested compounds and reference agonist (T1-ATG/AG1-ATG or T2-ATG/AG1-ATG). The obtained raw current recordings were normalized and represented as % of the current amplitude induced by a reference agonist (GABA = 100%) using the QPatch Assay Software (v5.0, Sophion Biosciences).[24]

[2] = Thermodynamic solubility in phosphate buffer pH = 7.4; format: physicochemical; conditions: phosphate buffer (Dulbecco's phosphate-buffered saline), aqueous buffer, thermodynamic from solid, phosphate buffer pH = 7.4, 20 °C
Method: Quantitative HPLC analyses were performed on a Waters Alliance e2695 Separations Module (Waters, Milford, CT, USA) with a detector 2998 Photodiode Array (PDA) detector (Waters, Milford, CT, USA) and the Chromolithe SpeedROD RP-18e 50–4.6 mm column (Merck, KGaA, Darmstadt, Germany). The column was kept at 30 °C. The conditions applied are as follows: eluent A (water/0.1% formic acid), eluent B (MeCN/0.1% formic acid), a flow rate of ,5 mL/min, a gradient of 0–100% B over 3 min, and an injection volume of 10 μL. Each sample was injected in triplicate. […] Standard solutions of the tested compounds and the reference compound were prepared in methanol at a concentration of 1 mg/mL. […] Next, 2 mg of the compound tested was dissolved in 1 mL of Dulbecco’s phosphate-buffered saline (DPBS), and the mixture was constantly agitated at 20 °C for 24 h in a thermoshaker. After that time, the mixtures were filtered through a cellulose acetate syringe filter (pore size 0.22 μm) and transferred to a chromatographic vial and analyzed using HPLC. For quantification, areas under the peaks of the investigated compounds on DAD chromatograms were used. Solubility was determined using the calibration curves.

[3] = molecular target: GABA-A receptor (benzodiazepine site, α1/γ2 interface); assay: Radioligand binding assay for the GABA-A receptor ([3H]-flunitrazepam displacement, rat brain homogenate); conditions: pKi = -log Ki, n.a. = no affinity
[4] = in vitro; conditions: human; for remaining at 2 h, 50 μM: % remaining (parent compound)
Method: Given that our goal was to obtain metabolically stable scaffolds, we selected 9 and 23 as representatives of each series for metabolic stability studies using human liver microsomes (HLMs). In parallel, we interrogated the quality of 1H-benzo[d]imidazole derivatives by confronting them head-to-head with the comparator drug alpidem.
The in vitro evaluation of the metabolic stability of the selected compound was performed using human liver microsomes (HLMs) (Sigma-Aldrich, St. Louis, MO, USA) as described previously.[25] The reaction mixture contained 50 μM of tested molecules HLMs (1 mg/mL) in 10 mM tris–HCl buffer. Following 5 min of preincubation, 50 μL of the NADPH Regeneration System (Promega, Madison, WI, USA) was added to induce the reaction. Next, the resulting reaction mixture was incubated at 37 °C for 120 min. The reaction was quenched with the addition of 200 μL of cold extra pure methanol and then centrifuged at 14,000 rpm for 15 min. The resulting supernatant was analyzed using an LC/MS Waters ACQUITY TQD system (Waters, Milford, USA).

[5] = tested on: HepG2 human hepatoma cells; assay: Hepatotoxicity assay: cell viability (PrestoBlue) and cell membrane damage (ToxiLight); format: cell-based; conditions: 24 h treatment; for cytotoxic effect in HepG2 cells: concentrations up to 50 μM
Method: (§1) Given that drug-induced liver injury (DILI) is the leading cause of the termination of potential drug candidates,[21],[22] two of the main molecules 9 and 23 were further assayed in HepG2 human hepatoma cells to assess their potential risk of toxicity.[23] The hepatotoxicity of the compounds tested was evaluated using two methods: cell viability (Figure 8A,B) and mitochondrial membrane potential assay (Figure 8C).
(§2) Figure 8 Hepatotoxicity assays for selected lead molecules. Cell viability (A) was measured using the PrestoBlue reagent, cell membrane damage (B) was assessed using the ToxiLight bioassay, and mitochondrial membrane potential (C) was assessed using a JC-1 probe. Assays performed after 24 h treatment with tested compounds and a reference alpidem. Results are presented as mean % of untreated controls ± S.D. (n = 3). Differences among groups were evaluated by one-way ANOVA followed by post-hoc analysis (Dunnett’s multiple comparison tests) and were considered statistically significant if p < 0.05 (****p < 0.0001, ***p < 0.001, **p < 0.01, and *p < 0.05). […]
(§3) Cell viability was measured using the PrestoBlue reagent (Thermo Fisher). […] Metabolically active cells are capable of reducing the PrestoBlue reagent, with the colorimetric changes used as an indicator to quantify the viability of cells in culture. This change can be determined by measuring the fluorescence. […] After 30 min of incubation at 37 °C, the fluorescence intensity (EX 530; EM 580 nm) was measured by using a multifunction plate reader (POLARstar Omega, BMG Labtech, Germany). Viability values were calculated as a percentage of live cells with respect to the control sample. Cell membrane damage was measured using the bioluminescent ToxiLight bioassay (Lonza). It quantitatively measures the release of adenylate kinase (AK) from the membranes of damaged cells. […] The enzyme actively phosphorylates ADP, and the resultant ATP is then measured using the bioluminescent firefly luciferase reaction with the ToxiLight reagent. […]

[6] = tested on: HepG2 human hepatoma cells; assay: Hepatotoxicity assay: mitochondrial membrane potential (JC-1 probe); format: cell-based; conditions: 100 μM, 24 h treatment
Method: as §1, §2, §3

T1 sequence (P14867 28-456): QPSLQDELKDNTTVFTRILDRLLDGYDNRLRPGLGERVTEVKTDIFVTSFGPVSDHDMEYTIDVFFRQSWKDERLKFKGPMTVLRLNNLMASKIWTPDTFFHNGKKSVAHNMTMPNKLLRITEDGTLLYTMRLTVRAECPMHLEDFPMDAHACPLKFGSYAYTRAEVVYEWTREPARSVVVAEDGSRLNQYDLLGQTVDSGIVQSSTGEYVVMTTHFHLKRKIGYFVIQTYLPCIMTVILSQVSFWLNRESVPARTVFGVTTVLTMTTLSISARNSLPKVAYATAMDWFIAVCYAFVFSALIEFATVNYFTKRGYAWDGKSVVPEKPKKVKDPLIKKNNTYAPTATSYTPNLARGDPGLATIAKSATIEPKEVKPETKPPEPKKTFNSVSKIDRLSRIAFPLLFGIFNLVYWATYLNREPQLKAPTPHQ
T1 sequence (P47870 25-512 partner limits assumed): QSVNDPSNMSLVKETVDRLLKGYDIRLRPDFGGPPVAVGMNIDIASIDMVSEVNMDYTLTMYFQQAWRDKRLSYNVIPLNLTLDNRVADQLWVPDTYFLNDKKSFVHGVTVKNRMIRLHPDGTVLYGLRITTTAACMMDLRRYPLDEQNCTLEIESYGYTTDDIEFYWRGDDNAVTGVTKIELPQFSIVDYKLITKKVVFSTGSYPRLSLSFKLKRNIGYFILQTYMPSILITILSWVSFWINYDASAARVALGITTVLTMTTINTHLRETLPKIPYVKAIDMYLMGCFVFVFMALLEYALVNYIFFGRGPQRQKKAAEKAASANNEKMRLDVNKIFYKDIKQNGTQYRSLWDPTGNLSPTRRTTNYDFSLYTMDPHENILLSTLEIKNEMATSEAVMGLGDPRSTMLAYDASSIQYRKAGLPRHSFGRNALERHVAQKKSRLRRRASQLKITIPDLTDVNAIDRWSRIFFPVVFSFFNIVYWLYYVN
T1 sequence (P18507 40-475): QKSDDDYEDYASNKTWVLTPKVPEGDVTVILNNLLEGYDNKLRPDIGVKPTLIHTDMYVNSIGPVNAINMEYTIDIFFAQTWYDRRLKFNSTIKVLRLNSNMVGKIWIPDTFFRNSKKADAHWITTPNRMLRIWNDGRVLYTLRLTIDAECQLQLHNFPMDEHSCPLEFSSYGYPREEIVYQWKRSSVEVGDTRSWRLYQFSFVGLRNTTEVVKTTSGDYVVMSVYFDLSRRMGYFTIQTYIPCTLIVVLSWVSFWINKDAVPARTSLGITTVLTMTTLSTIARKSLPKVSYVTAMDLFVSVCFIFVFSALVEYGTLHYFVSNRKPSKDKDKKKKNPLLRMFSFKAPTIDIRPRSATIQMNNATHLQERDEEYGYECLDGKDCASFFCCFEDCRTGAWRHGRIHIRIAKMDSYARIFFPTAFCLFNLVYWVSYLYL

Row | Structure (SMILES) | % of 10 μM GABA response [1] | solubility at 24 h [2] [µg/mL] | pKi GABA-A [3] | formation of hydroxylated metabolite (M1) ([4]; 120 min, 50 μM) [%] | remaining at 2 h, 50 μM ([4]; microsomes) [%] | cytotoxic effect in HepG2 cells [5] | mitochondrial membrane potential (MMP) of HepG2 cells [6] | hepatotoxicity in HepG2 cells ([5]; at 100 and 50 μM) | % remaining (parent compound) ([4]; microsomes, 2 h, 50 μM) [%]
1 | NC(=O)c1cccc(NC(=O)Cn2c(-c3ccc(F)cc3)nc3ccccc32)c1 [Compound 23, 3-(2-(2-(4-Fluorophenyl)-1H-benzo[d]imidazole-1-yl)acetamido)benzamide] | 132 ± 13,2% | 74 ± 0.81 (≈ 191 µM) | 6.05 | 10.87 | 89.1 | did not induce any significant cytotoxic effect | did not observe mitochondrial membrane potential (MMP) attenuation | – | –
2 | CCCN(CCC)C(=O)Cc1c(-c2ccc(Cl)cc2)nc2ccc(Cl)cn12 [alpidem, reference compound] | – | – | – | – | 38.6 | – | induced mitochondrial dysfunction | noticeable hepatotoxicity | –
3 | Cc1ccc2nc(-c3ccc(F)cc3)n(CC(=O)N3CCCC3)c2c1 [Compound 9, 2-(2-(4-Fluorophenyl)-6-methyl-1H-benzo[d]imidazole-1-yl)-1-(pyrrolidin-1-yl)ethan-1-one] | 172 ± 12,5% | 50 ± 0.54 (≈ 148 µM) | 5.5 | – | 90 | did not induce any significant cytotoxic effect | did not observe mitochondrial membrane potential (MMP) attenuation | – | 90.12
